From patent US11459318B2, “Pesticidally active pyrrole derivatives” (Syngenta Participations AG, priority 2017, dated 2022)

Legend:
Assay type in all cases: in vivo
[1] = system: Plutella xylostella (Diamond back moth); experiment: Plutella xylostella (Diamond back moth): Feeding/contact activity; settings: 120 h, application rate of 200 ppm, L2 larvae on artificial diet, assessed 5 days after infestation, read-out: control (mortality)
Method: Plutella xylostella (Diamond back moth): Feeding/contact activity
24-well microtiter plates with artificial diet were treated with aqueous test solutions prepared from 10,000 ppm DMSO stock solutions by pipetting. After drying, the plates were infested with L2 larvae (10 to 15 per well). The samples were assessed for mortality 5 days after infestation.

[2] = system: Myzus persicae (Green peach aphid); experiment: Myzus persicae (Green peach aphid): Feeding/Contact activity; settings: foliar, 144 h, application rate of 200 ppm, aphid population of mixed ages on sunflower leaf discs, assessed 6 days after infestation, read-out: control (mortality)
Method: Myzus persicae (Green peach aphid): Feeding/Contact activity Sunflower leaf discs were placed onto agar in a 24-well microtiter plate and sprayed with aqueous test solutions prepared from 10,000 ppm DMSO stock solutions. After drying, the leaf discs were infested with an aphid population of mixed ages. The samples were assessed for mortality 6 days after infestation.

[3] = system: Diabrotica balteata (Corn root worm); experiment: Diabrotica balteata (Corn root worm), maize sprouts sprayed, L2 larvae mortality; settings: 96 h, application rate of 200 ppm, L2 larvae on maize sprouts, assessed 4 days after infestation, read-out: control (mortality)
Method: Diabrotica balteata (Corn root worm):
Maize sprouts placed onto an agar layer in 24-well microtiter plates were treated with aqueous test solutions prepared from 10,000 ppm DMSO stock solutions by spraying. After drying, the plates were infested with L2 larvae (6 to 10 per well). The samples were assessed for mortality 4 days after infestation.

[4] = system: Spodoptera littoralis (Egyptian cotton leaf worm); experiment: Spodoptera littoralis (Egyptian cotton leaf worm): Feeding/contact activity; settings: foliar, 72 h, application rate of 200 ppm, L1 larvae on cotton leaf discs, assessed 3 days after infestation, read-out: control (mortality)
Method: Spodoptera littoralis (Egyptian cotton leaf worm): Feeding/contact activity Cotton leaf discs were placed onto agar in 24-well microtiter plates and sprayed with aqueous test solutions prepared from 10,000 ppm DMSO stock solutions. After drying the leaf discs were infested with five L1 larvae. The samples were assessed for mortality 3 days after infestation.

[5] = system: Euschistus heros (Neotropical Brown Stink Bug); experiment: Euschistus heros (Neotropical Brown Stink Bug): Feeding/contact activity; settings: 120 h, application rate of 200 ppm, N2 nymphs on soybean leaves, assessed 5 days after infestation, read-out: control (mortality)
Method: Euschistus heros (Neotropical Brown Stink Bug): Feeding/contact activity Soybean leaves on agar in 24-well microtiter plates were sprayed with aqueous test solutions prepared from 10,000 ppm DMSO stock solutions. After drying the leaves were infested with N2 nymphs. The samples were assessed for mortality 5 days after infestation.

[6] = system: Tetranychus urticae (Two-spotted spider mite); experiment: Tetranychus urticae (Two-spotted spider mite): Feeding/contact activity; settings: foliar, 192 h, application rate of 200 ppm, mite population of mixed ages (mobile stages) on bean leaf discs, assessed 8 days after infestation, read-out: control (mortality)
Method: Tetranychus urticae (Two-spotted spider mite): Feeding/contact activity
Bean leaf discs on agar in 24-well microtiter plates were sprayed with aqueous test solutions prepared from 10,000 ppm DMSO stock solutions. After drying the leaf discs were infested with a mite population of mixed ages. The samples were assessed for mortality on mixed population (mobile stages) 8 days after infestation.

[7] = system: Thrips tabaci (Onion Thrips); experiment: Thrips tabaci (Onion Thrips): Feeding/Contact activity; settings: foliar, 144 h, application rate of 200 ppm, thrips population of mixed ages on sunflower leaf discs, assessed 6 days after infestation, read-out: control (mortality)
Method: Thrips tabaci (Onion Thrips): Feeding/Contact activity
Sunflower leaf discs were placed on agar in 24-well microtiter plates and sprayed with aqueous test solutions prepared from 10,000 ppm DMSO stock solutions. After drying the leaf discs were infested with a thrips population of mixed ages. The samples were assessed for mortality 6 days after infestation.

Measured: mortality at 200 ppm

N#CC1(NC(=O)c2cc(-c3cnn(-c4c(Cl)cc(C(F)(C(F)(F)F)C(F)(F)F)n4CF)c3)ccc2Cl)CC1 [Compound 29, 2-chloro-5-[1-[3-chloro-1-(fluoromethyl)-5-[1,2,2,2-tetrafluoro-1-(trifluoromethyl)ethyl]pyrrol-2-yl]pyrazol-4-yl]-N-(1-cyanocyclopropyl)benzamide]
≥ 80%: all assays above

N#CC1(NC(=O)c2cc(-c3cnn(-c4c(Br)cc(C(F)(C(F)(F)F)C(F)(F)F)n4C4CC4)c3)ccc2Cl)CC1 [Compound 42, 5-[1-[3-bromo-1-cyclopropyl-5-[1,2,2,2-tetrafluoro-1-(trifluoromethyl)ethyl]pyrrol-2-yl]pyrazol-4-yl]-2-chloro-N-(1-cyanocyclopropyl)benzamide]
≥ 80%: all assays above
